Measurements taken from PMC2229530 (The Journal of General Physiology, 2002).

Columns and labels:
[1] = target: sodium pump (Homo sapiens, UniProt P05023); format: cell-based; conditions: for Slope of replot of A versus inhibitor concentration (unprotonated pump) / Slope of replot of B versus inhibitor concentration (protonated pump): 0.3 mM rubidium; for Slope of replot of A versus inhibitor concentration (unprotonated pump): Fig. 4a; for Slope of replot of B versus inhibitor concentration (protonated pump): Fig. 4b
[2] = target: sodium pump (Rattus norvegicus, UniProt P06685); format: cell-based
sodium pump (Rattus norvegicus, UniProt P06685), sequence (Q63377 whole entry, other chains not shown): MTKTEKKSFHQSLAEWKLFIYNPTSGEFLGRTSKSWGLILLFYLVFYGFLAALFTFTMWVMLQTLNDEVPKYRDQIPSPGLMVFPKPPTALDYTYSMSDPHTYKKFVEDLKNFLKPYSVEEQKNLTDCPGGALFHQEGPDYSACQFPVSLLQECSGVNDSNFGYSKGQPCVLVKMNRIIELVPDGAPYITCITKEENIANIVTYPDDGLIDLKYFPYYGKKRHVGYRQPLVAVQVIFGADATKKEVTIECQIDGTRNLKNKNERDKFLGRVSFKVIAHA

[Rb] [rubidium]
Slope of replot of A versus 1/[Rb] ([1]; human red blood cells, A normalized to y intercept 1, Fig. 2b): 1.32 ± 0.07
Slope of replot of B versus 1/[Rb] ([1]; human red blood cells, Fig. 2b): 0.0387 ± 0.0074
KRb, kinetic constant for rubidium binding to the unprotonated pump ([1]; human red cells, from replot of A vs 1/Rb, 37°C): 1.32 ± 0.07 mM
LRb, kinetic constant for rubidium binding to the protonated pump ([1]; human red cells, from replot of B vs 1/Rb, 37°C): 0.0387 ± 0.0074 mM
Slope of replot of A versus 1/[Rb] ([2]; rat red blood cells, A normalized to y intercept 1, Fig. 2a): 0.868 ± 0.101
Slope of replot of B versus 1/[Rb] ([2]; rat red blood cells, Fig. 2a): 0.066 ± 0.0059
Fold decrease by protons of the kinetic constant / Ki ([2]; rat red cells): ~13 fold
KRb, kinetic constant for rubidium binding to the unprotonated pump ([2]; rat red cells, from replot of A vs 1/Rb, 37°C): 0.87 ± 0.1 mM
LRb, kinetic constant for rubidium binding to the protonated pump ([2]; rat red cells, from replot of B vs 1/Rb, 37°C): 0.066 ± 0.006 mM

[Na+] [sodium]
Slope of replot of A versus inhibitor concentration (unprotonated pump) ([1]; human red blood cells): 0.271 ± 0.037
Slope of replot of B versus inhibitor concentration (protonated pump) ([1]; human red blood cells): 0.040 ± 0.006
Fold increase by protons of the kinetic constant ([2]; rat red cells): 7.1 fold

CC[N+](C)(C)Cc1ccccc1Br [bretylium]
Slope of replot of A versus inhibitor concentration (unprotonated pump) ([1]; human red blood cells): 0.392 ± 0.078
Slope of replot of B versus inhibitor concentration (protonated pump) ([1]; human red blood cells): 0.282 ± 0.019

C[C@@H]1O[C@@H](O[C@H]2C[C@@H](O)[C@]3(CO)[C@H]4[C@H](O)C[C@]5(C)[C@@H](C6=CC(=O)OC6)CC[C@]5(O)[C@@H]4CC[C@]3(O)C2)[C@H](O)[C@H](O)[C@H]1O [ouabain]
Fold decrease by protons of the kinetic constant / Ki ([2]; rat red cells): 2.2 fold
Fold increase of the kinetic constant for protons caused by the ligand ([2]; rat red cells): 2.2 fold

N=C(N)N.O=[N+]([O-])O [guanidinium, Guanidium (guanidine) nitrate]
Slope of replot of A versus inhibitor concentration (unprotonated pump) ([1]; human red blood cells): 0.175 ± 0.014
Slope of replot of B versus inhibitor concentration (protonated pump) ([1]; human red blood cells): 0.016 ± 0.001

[H+] [protons]
Kd ([2]; read-out: KH, proton binding to the pump in the absence of rubidium, rat pump, unloaded): 2.11 nM
